# Measured values from US9549921B2, “Heterocyclic compounds and methods of use thereof for the treatment of hepatitis C” (priority 2014, dated 2017).
# Where two headings read alike, the source gives them in different places.
# Experiments:
# [1] = system: HCV replicon genotype 1a; experiment: HCV replicon assay, genotype 1a (cell ELISA for NS3/4A); assay type: cell-based, hepatitis C virus
# Procedure, shortened: (§1)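 Readout is NS3/4A protein level from an antibody-based cell ELISA, serving as an indirect measure of replicon RNA; IC50 fitted with a four-parameter function relative to DMSO control. Replicon cells, kept under G418 beforehand, were plated with serial compound dilutions minus G418 for 96 hours.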
# [2] = system: HCV replicon genotype 1b; experiment: HCV replicon assay, genotype 1b (cell ELISA for NS3/4A); assay type: cell-based, hepatitis C virus
# Procedure, shortened: as §1
# [3] = Hepatitis C virus, 96 h, read-out: 1a IC50 (nM), HCV genotype 1a replicon cells, 96 hours incubation, NS3/4A ELISA readout, % of DMSO control
# [4] = Hepatitis C virus, 96 h, read-out: 1b IC50 (nM), HCV genotype 1b replicon cells, 96 hours incubation, NS3/4A ELISA readout, % of DMSO control
# [5] = read-out: 1a IC50, HCV genotype 1a replicon cells, 96 hours incubation, NS3/4A ELISA readout, % of DMSO control
# [6] = read-out: 1b IC50, HCV genotype 1b replicon cells, 96 hours incubation, NS3/4A ELISA readout, % of DMSO control
Compound,"IC50 [1, 3] [nM]","IC50 [2, 4] [nM]","IC50 [1, 5] [nM]","IC50 [2, 6] [nM]"
"CNC(=O)c1c(-c2ccc(F)cc2)oc2cc(N(C)S(C)(=O)=O)c([C@@H]3CCCN(C(=O)c4nc5ccc(F)cc5s4)C3)cc12 [Example 75, 5-{1-[(6-fluoro-1,3-benzothiazol-2-yl)carbonyl]piperidin-3-yl}-2-(4-fluorophenyl)-N-methyl-6-[methyl(methylsulfonyl)amino]-1-benzofuran-3-carboxamide]",72.3,12,–,–
"CNC(=O)c1c(-c2ccc(F)cc2)oc2cc(N(C)S(C)(=O)=O)c([C@@H]3CCCN(C(=O)c4ccc(F)cc4)C3)cc12 (single isomer, unassigned) [Example 20, 5-(1-(4-fluorobenzoyl)piperidin-3-yl)-2-(4-fluorophenyl)-N-methyl-6-(N-methylmethylsulfonamido)benzofuran-3-carboxamide]",–,–,48,46.9
"CNC(=O)c1c(-c2ccc(F)cc2)oc2cc(N(C)S(C)(=O)=O)c([C@@H]3CCCN(S(=O)(=O)c4ccc5ncsc5c4)C3)cc12 [Example 112, 5-[(3S)-1-(1,3-benzothiazol-6-ylsulfonyl)piperidin-3-yl]-2-(4-fluorophenyl)-N-methyl-6-[methyl(methylsulfonyl)amino]-1-benzofuran-3-carboxamide]",25,6.79,–,–
"CNC(=O)c1c(-c2ccc(F)cc2)oc2cc(N(C)S(C)(=O)=O)c([C@H]3CCCN(C(=O)c4cn5c(Cl)cccc5n4)C3)cc12 [Example 107, 5-{(3R)-1-[(5-chloroimidazo[1,2-a]pyridin-2-yl)carbonyl]piperidin-3-yl}-2-(4-fluorophenyl)-N-methyl-6-[methyl(methylsulfonyl)amino]-1-benzofuran-3-carboxamide]",389,116,–,–
"CNC(=O)c1c(-c2ccc(F)cc2)oc2cc(N(C)S(C)(=O)=O)c([C@@H]3CCCN(C(=O)c4cc5ccccc5n4C)C3)cc12 [Example 67, 2-(4-fluorophenyl)-N-methyl-5-{1-[(1-methyl-1H-indol-2-yl)carbonyl]piperidin-3-yl}-6-[methyl(methylsulfonyl)amino]-1-benzofuran-3-carboxamide]",156,87.4,–,–
"CNC(=O)c1c(-c2ccc(F)cc2)oc2cc(N(C)S(C)(=O)=O)c([C@@H]3CCCN(c4nc5ncccc5o4)C3)cc12 (single isomer, unassigned) [Example 53, 2-(4-fluorophenyl)-N-methyl-6-(N-methylmethylsulfonamido)-5-(1-(oxazolo[4,5-b]pyridin-2-yl)piperidin-3-yl)benzofuran-3-carboxamide]",14.6,15.7,–,–
CNC(=O)c1c(-c2ccc(F)cc2)oc2cc(N(C)S(C)(=O)=O)c([C@@H]3CCCN(S(=O)(=O)c4ccc(F)cc4)C3)cc12 [Example 115],36.6,8,–,–
"CNC(=O)c1c(-c2ccc(F)cc2)oc2cc(N(C)S(C)(=O)=O)c(C3CCCN(C(=O)[C@H](NC(=O)OC(C)(C)C)c4ccccc4F)C3)cc12 (single isomer, unassigned) [Example 27]",44.4,35.2,–,–
"CNC(=O)c1c(-c2ccc(F)cc2)oc2cc(N(C)S(C)(=O)=O)c([C@@H]3CCCN(S(=O)(=O)c4ccccc4)C3)cc12 [Example 117, 2-(4-fluorophenyl)-N-methyl-6-[methyl(methylsulfonyl)amino]-5-[(3S)-1-(phenylsulfonyl)piperidin-3-yl]-1-benzofuran-3-carboxamide]",32.3,9.37,–,–
"CNC(=O)c1c(-c2ccc(F)cc2)oc2cc(N(C)S(C)(=O)=O)c([C@H]3CCCN(S(=O)(=O)c4ccc5ncsc5c4)C3)cc12 [Example 129, 5-[(3R)-1-(1,3-benzothiazol-6-ylsulfonyl)piperidin-3-yl]-2-(4-fluorophenyl)-N-methyl-6-[methyl(methylsulfonyl)amino]-1-benzofuran-3-carboxamide]",194,110,–,–
"CNC(=O)c1c(-c2ccc(F)cc2)oc2cc(N(C)S(C)(=O)=O)c([C@@H]3CCCN(C(=O)c4cc5ccccc5[nH]4)C3)cc12 (single isomer, unassigned) [Example 22, 5-(1-(1H-indole-2-carbonyl)piperidin-3-yl)-2-(4-fluorophenyl)-N-methyl-6-(N-methylmethylsulfonamido)benzofuran-3-carboxamide]",–,–,40.8,18.8
"CNC(=O)c1c(-c2ccc(F)cc2)oc2cc(N(C)S(C)(=O)=O)c([C@H]3CCCN(C(=O)c4cc5cc(F)ccc5[nH]4)C3)cc12 [Example 90, (R)-5-(1-(5-fluoro-1H-indole-2-carbonyl)piperidin-3-yl)-2-(4-fluorophenyl)-N-methyl-6-(N-methylmethylsulfonamido)benzofuran-3-carboxamide]",41.6,20.7,–,–
"CNC(=O)c1c(-c2ccc(F)cc2)oc2cc(N(C)S(C)(=O)=O)c([C@@H]3CCCN(C(=O)C4CC4c4ccccn4)C3)cc12 (stereo partly shown) [Example 78, 2-(4-fluorophenyl)-N-methyl-6-[methyl(methylsulfonyl)amino]-5-{1-[(2-pyridin-2-ylcyclopropyl)carbonyl]piperidin-3-yl}-1-benzofuran-3-carboxamide]",–,–,248,81.2
"CNC(=O)c1c(-c2ccc(F)cc2)oc2cc(N(C)S(C)(=O)=O)c([C@H]3CCCN(S(=O)(=O)Cc4ccc(F)c(F)c4)C3)cc12 [Example 84, 5-{(3R)-1-[(3,4-difluorobenzyl)sulfonyl]piperidin-3-yl}-2-(4-fluorophenyl)-N-methyl-6-[methyl(methylsulfonyl)amino]-1-benzofuran-3-carboxamide]",2.77,3.04,–,–
"CNC(=O)c1c(-c2ccc(F)cc2)oc2cc(N(C)S(C)(=O)=O)c([C@@H]3CCCN(c4nc5ccccc5[nH]4)C3)cc12 (single isomer, unassigned) [Example 46, 5-(1-(1H-benzo[d]imidazol-2-yl)piperidin-3-yl)-2-(4-fluorophenyl)-N-methyl-6-(N-methylmethylsulfonamido)benzofuran-3-carboxamide]",–,–,11.9,9.47
"CNC(=O)c1c(-c2ccc(F)cc2)oc2cc(N(C)S(C)(=O)=O)c([C@H]3CCCN(C(=O)c4cn(C)c5ccccc45)C3)cc12 [Example 101, 2-(4-fluorophenyl)-N-methyl-5-{(3R)-1-[(1-methyl-1H-indol-3-yl)carbonyl]piperidin-3-yl}-6-[methyl(methylsulfonyl)amino]-1-benzofuran-3-carboxamide]",103,55.9,–,–
"CNC(=O)c1c(-c2ccc(F)cc2)oc2cc(N(C)S(C)(=O)=O)c([C@@H]3CCCN(c4nc5ccccc5n4C)C3)cc12 (single isomer, unassigned) [Example 44, 2-(4-fluorophenyl)-N-methyl-5-(1-(1-methyl-1H-benzo[d]imidazol-2-yl)piperidin-3-yl)-6-(N-methylmethylsulfonamido)benzofuran-3-carboxamide]",–,–,71,82.4
"CNC(=O)c1c(-c2ccc(F)cc2)oc2cc(N(C)S(C)(=O)=O)c([C@@H]3CCCN(C(=O)Cc4ccc(F)cc4)C3)cc12 (single isomer, unassigned) [Example 17, 2-(4-fluorophenyl)-5-(1-(2-(4-fluorophenyl)acetyl)piperidin-3-yl)-N-methyl-6-(N-methylmethylsulfonamido)benzofuran-3-carboxamide]",138,58.2,–,–
"CNC(=O)c1c(-c2ccc(F)cc2)oc2cc(N(C)S(C)(=O)=O)c([C@H]3CCCN(S(=O)(=O)Cc4ccc(F)cc4)C3)cc12 [Example 80, 5-{(3R)-1-[(4-fluorobenzyl)sulfonyl]piperidin-3-yl}-2-(4-fluorophenyl)-N-methyl-6-[methyl(methylsulfonyl)amino]-1-benzofuran-3-carboxamide]",3.17,4.5,–,–
"CNC(=O)c1c(-c2ccc(F)cc2)oc2cc(N(C)S(C)(=O)=O)c([C@@H]3CCCN(S(=O)(=O)c4cccc5nonc45)C3)cc12 [Example 120, 5-[(3S)-1-(2,1,3-benzoxadiazol-4-ylsulfonyl)piperidin-3-yl]-2-(4-fluorophenyl)-N-methyl-6-[methyl(methylsulfonyl)amino]-1-benzofuran-3-carboxamide]",22.4,8.37,–,–
"CNC(=O)c1c(-c2ccc(F)cc2)oc2cc(N(C)S(C)(=O)=O)c([C@@H]3CCCN(C(=O)C4CC4c4ccccn4)C3)cc12 (stereo partly shown) [Example 60, 2-(4-fluorophenyl)-N-methyl-6-[methyl(methylsulfonyl)amino]-5-{1-[(2-pyridin-2-ylcyclopropyl)carbonyl]piperidin-3-yl}-1-benzofuran-3-carboxamide]",–,–,116,40.3
"CNC(=O)c1c(-c2ccc(F)cc2)oc2cc(N(C)S(C)(=O)=O)c([C@@H]3CCCN(C(=O)c4nc5ccccc5o4)C3)cc12 [Example 77, 5-[1-(1,3-benzoxazol-2-ylcarbonyl)piperidin-3-yl]-2-(4-fluorophenyl)-N-methyl-6-[methyl(methylsulfonyl)amino]-1-benzofuran-3-carboxamide]",64.3,19.2,–,–
"CNC(=O)c1c(-c2ccc(F)cc2)oc2cc(N(C)S(C)(=O)=O)c([C@@H]3CCCN(c4nc5c(C#N)cccc5o4)C3)cc12 [Example 5, (S)-5-(1-(4-cyanobenzo[d]oxazol-2-yl)piperidin-3-yl)-2-(4-fluorophenyl)-N-methyl-6-(N-methylmethylsulfonamido)benzofuran-3-carboxamide]",53.7,19.3,–,–
